Assay results as given in patent US9358262B2, “Use of antioxidant-enriched fermented blueberry extracts in the treatment of diabetes” (priority 2003, dated 2016).
Marks after values point to notes of the source that are not given here.

System: KKA^y mice
Assay: Chronic 4-week treatment of diabetic KKA^y mice in drinking water
Format: in vivo, mouse
Description: Mice were fasted for 16 h. A glucose solution was administered by intragastric gavage at a dose of 1 g/kg body weight. The blood glucose concentration was measured at 0, 30, 60, 90, 120 min after glucose administration in the blood collected from the tip of the tail vein, using an Accu-Chek glucose meter (Roche, Montreal, QC, Canada).
At the end of the experiment, blood samples were collected from renal artery during exsanguinations carried out under anesthesia using heparinized tools. The samples were centrifuged at 3000 g for 10 min at 4° C. The plasma samples were used for the analyses of biochemical parameters. Plasma adiponectin, insulin and leptin were measured using radioimmuno assay (RIA) kits (Millipore, Montreal, QC, Canada).
In preliminary experiments, three different doses of BJ, namely 20, 40, 80 ml/kg/day, were incorporated in the drinking water and provided to mice for one week. […] Therefore, this dose was used for the chronic treatment studies described here.
Forty-two 7 week-old KKA^y mice were randomly divided into 6 groups (n=7) which received either water, normal blueberry juice (NJ) (80 ml/kg/day), biotransformed blueberry juice (BJ) (80 ml/kg/day; prepared as described in Example 8), or Metformin (0.85 g/kg/day) (Meglasson M D et al., supra) in drinking water. […] The sixth and final group received SW but had unrestricted access to solid food. Baseline measurements of fed blood glucose levels, body weight, food intake and water consumption were taken daily at 11.00 a.m. At the onset of experiments and after 4 weeks, an oral glucose tolerance test (OGTT) was performed, as described in Example 8.

[1] = NJ, BJ 80 ml/kg/day, MET 0.85 g/kg/day, 4 weeks

## CN(C)C(=N)N=C(N)N [MET, Metformin]
4 weeks
  Rise of circulating adiponectin above values of control animals: neither NJ nor Metformin treatments could modify the low level of adiponectin
4 weeks, BJ effect not statistically significant
  Reduction of circulating insulin levels vs controls: normalized
4 weeks, glucose 1 g/kg by gavage
  Drop of OGTT AUC between the onset and the end of treatment: 38%
[1]
  Adiponectin (plasma): 5.9 ± 0.6^a μg/ml
  Insulin (plasma): 1.7 ± 0.5^b ng/ml
  Leptin (plasma): 27.6 ± 2.9^a ng/ml
  Reduction of food intake as compared to controls: 30%
Chronic treatment in drinking water
  Time to reach the maximum (BJ) or normalising (Metformin) effect on glycemia: ≤ 4 days
During 4-week treatment
  Glycemia level (fed state): 10 mM
End of the 4-week treatment period
  Body weight loss as compared to controls: 4%
